Experimental data from US20240226117A1, “TREATMENT OF CONGENITAL ADRENAL HYPOPLASIA” (ReveraGen BioPharma, Inc., priority 2021, published 2024).

Columns and labels:
[1] = tested on: DMD participants; assay: Prespecified safety evaluation: height percentile for age and BMI z-score; format: in vivo, human
Experimental: As with the […] comparators, group-matching criteria were prespecified in the iSAP, and 2 independent statisticians carried out the participant matching. […] There was no corresponding 12-month assessment in vamorolone-treated participants. (Assessments of vamorolone-treated trial participants were 0, 3, 6, and 18 months). Standing height and weight were assessed at each study visit. Height z-score, body mass index (BMI: kg/m^2), and BMI z-score were calculated centrally. AE reporting was done per protocol in the vamorolone trials. The current study is the first to evaluate the longer-term tolerability, efficacy, and safety of vamorolone in DMD. […] Given the variable timing of dose escalations, it was prespecified that initial analyses of drug-related efficacy and safety would be limited to those participants who had 18 months of treatment with 2.0 mg/kg/day vamorolone or more (dose group C+dose group D: n=23). Outcomes for these participants were compared to a group-matched cohort from the […] over 18 months (corticosteroid-naïve, n=19: corticosteroid-treated, n=68). Participants were matched for age and treatment period (+1 month), matching criteria were prespecified in the statistical analysis plan. Two independent statisticians carried out the matching. […] Participants in the corticosteroid-treated […] group were treated for at least 18 months, but the total duration, dose, and regimens varied. Statistical analyses were done on paired longitudinal outcome data using an analysis of covariance (ANCOVA) approach with change from baseline (VBP15-002) to month 18 (midpoint of VBP15-LTE). Baseline response and age were included as covariates. For the vamorolone-treated participants, age was calculated as (date of informed consent minus birthdate)/365.25. For the DNHS participants, age was calculated as (date of baseline visit used minus birthdate)/365.25. The baseline visit for a DNHS participant was the first visit. […] Timed function tests were analyzed as velocity scores to limit the impact of participants who could not perform the test (velocity=0). Velocity measures are variance-stabilizing transformations, suppressing extreme raw outliers from raw values in seconds; these help with distributional assumptions of the statistical models/tests used. Raw data (seconds) are also reported. Velocity scores for […] (event/second), TTRW (meters/second), and […] (event/second) were inputted as 0 at the first response missing due to inability to perform the test. All other data were observed values only, without imputation. No adjustments for multiplicity on inferential statistics were specified in the iSAP.

[2] = tested on: DMD participants; assay: Skeletal maturation by wrist x-ray, VBP15-LTE Month 24; format: in vivo, human; settings: for Bone Age difference to Chronologic Age, mean (SD): wrist x-ray at LTE Month 24, n = 39
Text: In certain embodiments, the difference between chronological age of the human patient and the bone age of the human patient is reduced. A child's bone age (also called the skeletal age) is assigned by determining which of the standard X-ray images in the atlas most closely match the appearance of the child's bones on the X-ray. A difference between a child's bone age and chronological age might indicate a growth problem. The larger the difference between the bone age of a human patient and their chronological age, the greater the growth problem or disease symptom.
In addition, 39/41 LTE participants had wrist x-ray at Month 24; the mean bone age to chronologic age difference was −1.1 (p<0.001, CI −1.5, −0.7), indicating possible skeletal maturation delay (Table 7).

[3] = tested on: DMD participants; assay: Morning serum cortisol (adrenal suppression); format: in vivo, human; settings: 24-week trial
Experimental: Two tests for adrenal insufficiency were used: morning cortisol (before drug) and ACTH stimulation tests. Adrenal suppression was measured via morning serum cortisol levels at Baseline, 12-weeks, and 24-weeks. The ACTH stimulation test was measured at Baseline and 24-weeks. Morning cortisol was measured in the clinic before daily drug administration. Morning cortisol levels were similar at Baseline (˜200 nmol/L) in all groups and remained stable over the 24-week trial in the Placebo Group.

[4] = tested on: ambulant boys with DMD; assay: VBP15-004 bone turnover biomarkers; format: in vivo, human; settings: for Osteocalcin, difference vs. prednisone / Procollagen 1 N-Terminal Propeptide (P1NP), difference vs. prednisone / Type I Collagen C-Telopeptides (CTX), difference vs. prednisone: Week 24, p < 0.001
[5] = target: T1, mineralocorticoid receptor (Homo sapiens, UniProt P08235); settings: background statement; cited from earlier work
T1 sequence (P08235 1-984): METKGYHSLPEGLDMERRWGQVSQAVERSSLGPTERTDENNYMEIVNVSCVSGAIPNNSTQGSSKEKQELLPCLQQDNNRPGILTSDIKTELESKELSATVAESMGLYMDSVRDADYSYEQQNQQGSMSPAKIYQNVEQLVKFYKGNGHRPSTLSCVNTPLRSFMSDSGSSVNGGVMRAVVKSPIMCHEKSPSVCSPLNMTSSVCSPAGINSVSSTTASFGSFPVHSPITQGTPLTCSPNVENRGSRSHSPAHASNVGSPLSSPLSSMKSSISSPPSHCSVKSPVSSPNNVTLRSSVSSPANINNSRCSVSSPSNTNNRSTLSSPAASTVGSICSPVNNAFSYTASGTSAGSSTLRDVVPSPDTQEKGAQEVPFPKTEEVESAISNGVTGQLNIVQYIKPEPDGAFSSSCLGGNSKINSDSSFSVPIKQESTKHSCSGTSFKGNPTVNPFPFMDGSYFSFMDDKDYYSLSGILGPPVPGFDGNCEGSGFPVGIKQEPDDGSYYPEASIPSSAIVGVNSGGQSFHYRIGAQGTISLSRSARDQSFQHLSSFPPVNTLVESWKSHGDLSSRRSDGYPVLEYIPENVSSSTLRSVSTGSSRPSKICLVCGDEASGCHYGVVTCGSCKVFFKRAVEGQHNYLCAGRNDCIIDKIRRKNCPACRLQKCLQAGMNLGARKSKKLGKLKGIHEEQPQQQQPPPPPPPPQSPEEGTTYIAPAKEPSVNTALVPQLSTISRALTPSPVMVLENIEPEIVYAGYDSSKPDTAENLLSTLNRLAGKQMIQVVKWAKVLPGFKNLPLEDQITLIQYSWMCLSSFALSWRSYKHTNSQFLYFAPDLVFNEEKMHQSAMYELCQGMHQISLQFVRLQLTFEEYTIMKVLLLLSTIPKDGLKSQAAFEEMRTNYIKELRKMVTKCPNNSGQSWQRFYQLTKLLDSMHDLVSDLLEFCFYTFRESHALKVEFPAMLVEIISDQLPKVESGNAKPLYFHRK

[6] = 18 months, vamorolone 2.0 or 6.0 mg/kg/day, DNHS corticosteroid doses and regimens varied
[7] = vamorolone 18 months versus corticosteroid-naïve DNHS, ANCOVA

## C[C@@H]1C[C@H]2[C@@H]3CCC4=CC(=O)C=C[C@]4(C)C3=CC[C@]2(C)[C@@]1(O)C(=O)CO [Vamorolone, 17α,21-dihydroxy-16α-methylpregna-1,4,9(11)-triene-3,20-dione]
[1]; [6]
  Mean BMI z-score, 18-month value (SD): 1.46 (0.62)
  Mean BMI z-score, change from baseline (SD): 0.411 (0.615)
  Mean height percentile for age, 18-month value (SD): 35.24 (29.82)
[1]; 18 months, vamorolone 2.0 or 6.0 mg/kg/day, DNHS corticosteroid doses and regimens varied, listed as vamorolone
  Mean BMI z-score, change from baseline (SD): 0.41
[1]; DMD children treated with vamorolone, N = 22, 18 months treatment
  LS Mean change in height percentiles for age: +6.9
[1]; original dose group B (0.75 mg/kg/day, escalated in LTE)
  BMI change from baseline to 18 months of treatment: 0.5 kg/m^2
[1]; original dose group C (2.0 mg/kg/day)
  BMI change from baseline to 18 months of treatment: 1.11 kg/m^2
[1]; original dose group D (6.0 mg/kg/day)
  BMI change from baseline to 18 months of treatment: 2.55 kg/m^2
[1]; vamorolone 18-month treatment versus prednisone trial 12-month treatment, ANCOVA
  Mean height percentile for age, LS mean difference (SE): 10.37
[1]; [7]
  Mean BMI z-score, LS mean difference (SE): 0.899 (0.204)
  Mean height percentile for age, LS mean difference (SE): 6.72 (3.48)
[1]; vamorolone treatment group
  growth stunting (mean change in height percentile versus corticosteroid-treated DNHS): no evidence of growth stunting
[1]; vamorolone versus corticosteroid-treated DNHS, 18 months, ANCOVA
  Mean height percentile for age, LS mean difference (SE): 15.86
[2]
  Bone Age difference to Chronologic Age, mean (SD): −1.1 (1.2), yr
[2]; listed as vamorolone
  Bone Age difference to Chronologic Age, mean (SD): −1.1 yr
[2]; wrist x-ray, n = 39, chronologic age 8.0 (1.0) yr
  LTE Month 24 Bone Age, mean (SD): 6.8 (1.4), n = 39 yr
[3]; vamorolone 2.0 mg/kg/day, p=0.002
  adrenal suppression by morning cortisol, compared with prednisone: less adrenal suppression than prednisone
[3]; vamorolone 6.0 mg/kg/day
  adrenal suppression by morning cortisol, compared with prednisone: not significantly different from prednisone
[4]; Vamorolone 2.0 mg, N = 17
  Osteocalcin, mean (SEM) change at Week 24: 8.3 (3.1) ng/ml
  Procollagen 1 N-Terminal Propeptide (P1NP), mean (SEM) change at Week 24: 48 (27) ng/mL
  Type I Collagen C-Telopeptides (CTX), mean (SEM) change at Week 24: 177 (52) pg/mL
[4]; Vamorolone 2.0 mg
  Osteocalcin, difference vs. prednisone: 23.5 ng/mL
  Procollagen 1 N-Terminal Propeptide (P1NP), difference vs. prednisone: 182 ng/mL
  Type I Collagen C-Telopeptides (CTX), difference vs. prednisone: 477 pg/mL
[4]; Vamorolone 6.0 mg
  Osteocalcin, difference vs. prednisone: 16.9 ng/mL
  Procollagen 1 N-Terminal Propeptide (P1NP), difference vs. prednisone: 124 ng/mL
  Type I Collagen C-Telopeptides (CTX), difference vs. prednisone: 390 pg/mL
[5]
  activity at the mineralocorticoid receptor: potent antagonist
